Assay results: patent US4578400A, “Therapeutic composition and method for treatment of cardiovascular diseases” (priority 1982, dated 1986)

What was measured:
[1] = tested on: chloroform-induced arrhythmia (ventricular fibrillation); assay: Effect on chloroform-induced arrhythmia; format: in vivo, male ddy mice; details: for Percent occurrence of ventricular fibrillation: 15 min before chloroform, control 100
Excerpt: When they stopped breathing, they were thoracotomized to examine the occurrence of ventricular fribrillation. The results are noted in Table 2 as percent occurrence of ventricular fibrillation.

[2] = tested on: ouabain induced arrhythmia; assay: Effect on ouabain induced arrhythmia; format: in vivo, male hartley guinea pigs; details: for relative time for extrasystole to occur / relative time for cardiac arrest to occur / relative time for ventricular fibrillation to occur: control = 100
Excerpt: Effect on ouabain induced arrhythmia
The procedure described in Matsubara et al. (Folia Pharmacologica Japonica, 72, 557-571, 1976) was followed.
Male hartley guinea pigs were divided into groups of 8 animals and anesthetized with intraperitoneal urethane. Three groups were orally administered 5--HDA--Na, 5--HDAE and 5--HDA--DHP dissolved in distilled water. Another group was intravenously injected with 5--HDA--Na dissolved in physiological saline. One group was orally administered δ-DL emulsified in 5% aqueous arabic gum solution. One group was injected intravenously with lidocaine dissolved in physiological saline. For the respective routes of administration, control groups were administered the solvents used in administration of the test compounds. Thirty minutes after the oral administration and one minute after the intravenous injection, ouabain was infused into the jugular vein at a rate of 5 μg/kg/min until extrasystole, ventricular fibrillation and cardiac arrest appeared on a standard limb lead II of ECG. The results are shown in Table 3, with the time necessary for the respective symptoms to occur in the control groups taken as 100.

[3] = biological target: T1, 3-hydroxy-3-methylglutaryl coenzyme A (HMG-Co A) reductase (Rattus norvegicus, UniProt P51639); assay: Inhibition of HMG-CoA reductase activity; format: biochemical, rat (liver microsome); details: read-out: IC30 (amount necessary for inhibiting the enzymatic activity by 30%)
T1 sequence (P51639 1-887): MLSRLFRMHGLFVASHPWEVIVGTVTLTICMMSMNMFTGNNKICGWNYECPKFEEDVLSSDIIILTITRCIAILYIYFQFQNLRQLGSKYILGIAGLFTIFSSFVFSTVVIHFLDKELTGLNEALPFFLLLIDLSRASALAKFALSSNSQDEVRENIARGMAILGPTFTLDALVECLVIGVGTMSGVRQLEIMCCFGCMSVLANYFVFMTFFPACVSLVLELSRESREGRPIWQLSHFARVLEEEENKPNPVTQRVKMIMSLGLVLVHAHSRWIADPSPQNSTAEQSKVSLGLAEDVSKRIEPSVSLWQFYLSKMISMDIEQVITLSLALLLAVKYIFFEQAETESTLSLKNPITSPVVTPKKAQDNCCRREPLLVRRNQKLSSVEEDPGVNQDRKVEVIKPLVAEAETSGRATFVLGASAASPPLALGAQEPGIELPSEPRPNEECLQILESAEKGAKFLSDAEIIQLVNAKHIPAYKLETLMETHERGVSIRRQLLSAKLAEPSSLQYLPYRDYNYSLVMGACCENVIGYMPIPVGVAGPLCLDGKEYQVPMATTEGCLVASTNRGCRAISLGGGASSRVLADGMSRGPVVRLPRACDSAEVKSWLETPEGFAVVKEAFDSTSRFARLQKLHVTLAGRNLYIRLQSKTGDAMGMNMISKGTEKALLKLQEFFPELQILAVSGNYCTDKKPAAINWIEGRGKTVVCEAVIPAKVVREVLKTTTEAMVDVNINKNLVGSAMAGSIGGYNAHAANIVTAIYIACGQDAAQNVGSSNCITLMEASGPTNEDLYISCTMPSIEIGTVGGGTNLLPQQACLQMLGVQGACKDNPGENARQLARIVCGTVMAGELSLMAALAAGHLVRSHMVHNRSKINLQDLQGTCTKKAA
Excerpt: Inhibition of the activity of 3-hydroxy-3-methylglutaryl coenzyme A (HMG-Co A) reductase

[4] = Lowering serum lipid levels in Triton-induced hyperlipidemic rats; format: in vivo, male Wistar rats
Experimental: After 10 hours, blood samples were drawn to determine the serum levels of total cholesterol and triglyceride.

[5] = Lowering serum cholesterol levels in hyperlipidemic rabbits; format: in vivo, male Japanese white rabbits; details: 100 mg/kg oral daily for 7 days
Excerpt: Male Japanese white rabbits weighing about 2.5 kg were fed on a solid diet containing 1% cholesterol (RC-4, Nippon Crea Co., Ltd.) for 10 weeks until hypercholesterolemia fully developed. The rabbits were then divided into groups of 5 animals, and 5--HDA--Na or δ-DL was orally admininistered daily for 7 days, either as a solution or as an emulsion in 5% aqueous arabic gum. Three hours after the last administration, blood was drawn to determine the serum level of cholesterol.

[6] = tested on: myocardial mitochondria; assay: Inhibition of the decrease in respiratory capacity of myocardial mitochondria; format: biochemical, male Wistar rats; details: for ATP production rate: normal 515, defective 204, *P < 0.05
Experimental: Inhibition of the decrease in respiratory capacity of myocardial mitochondria
According to the method of Hagiwara (Biochem. Biophys. Acta, 46, 134-142, 1961), mitochondria fractions were prepared from the myocardium isolated from male Wistar rats weighing about 300 g. The respiratory capacity of the mitochondria was measured by polarography with an oxygen electrode (TA-100, Yanagimoto), with sodium glutamate and ADP being successively added to give final concentrations of 50 mM and 4 mM, respectively. Defective mitochondria were prepared by leaviang the mitochondria fractions at 0° C. for 24 hours, and 5--HDA--Na was added to determine its ability to inhibit the decrease in the respiratory capacity of the myocardial mitochondria, which is proportional to the rate of ATP production.

[7] = Acute toxicity; details: one week observation
Excerpt: Male ddy mice weighing about 25 g were divided into groups of 10 animals and orally administered once with 3 g/kg of 5--HDA, 5--HDA--Na, 5--HDAE, 5--HDA--DHP or δ-DL, or intraperitoneally injected once with 1 g/kg of said compounds.

[8] = Solubility (physicochemical properties, Table 1)
[9] = 100 mg/kg oral, four times, against control, 10 hours after Triton WR-1339, *P < 0.05

## CCCCCC(O)CCCC(=O)[O-].[Na+] (stereo not drawn)
[1]; 50 mg/kg, oral
  Percent occurrence of ventricular fibrillation: 50
[1]; 100 mg/kg oral vs lidocaine 10 mg/kg i.p.
  anti-arrhythmic potency compared with lidocaine (in words): more potent than lidocaine
[1]; 100 mg/kg, oral
  anti-arrhythmic effects (in words): significant anti-arrhythmic effects
[1]; 100 mg/kg, oral, *P < 0.05
  Percent occurrence of ventricular fibrillation: 30
[2]; i.v., 20 mg/kg
  relative time for extrasystole to occur: 146
[2]; i.v., 20 mg/kg, *P < 0.05
  relative time for cardiac arrest to occur: 132
  relative time for ventricular fibrillation to occur: 140
[2]; oral, 50 mg/kg
  relative time for extrasystole to occur: 118
[2]; oral, 50 mg/kg, *P < 0.05
  relative time for cardiac arrest to occur: 134
  relative time for ventricular fibrillation to occur: 126
[2]; oral, 100 mg/kg
  relative time for extrasystole to occur: 160
[2]; oral, 100 mg/kg, *P < 0.05
  relative time for ventricular fibrillation to occur: 144
[2]; oral, 100 mg/kg, *P < 0.05 where starred
  relative time for cardiac arrest to occur: 136
[2]; ouabain induced arrhythmia
  antiarrhythmic effects (in words): significant antiarrhythmic effects
[3]
  IC30: 100 µM
[4]; [9]
  inhibition rate, total cholesterol (serum): 20%
  inhibition rate, triglyceride (serum): 15%
[4]; 100 mg/kg, oral
  antilipidemic effects compared with Clofibrate (in words): equipotent to or stronger than the effect of the known anti-lipidemic agent, Clofibrate
[5]
  serum level of total cholesterol (in words): lowered the serum level of total cholesterol
[5]; 3 h after last administration, control 1,394, *P < 0.05
  Total serum cholesterol: 1,165 mg/dl
[6]; defective mitochondria
  decrease in ATP production in defective mitochondria (in words): significantly inhibited
[6]; defective mitochondria + 10^-4 M
  ATP production rate: 265 mM/mg-protein/min
[6]; defective mitochondria + 10^-5 M
  ATP production rate: 220 mM/mg-protein/min
[7]; 1 g/kg intraperitoneal once
  acute toxicity: abnormality: no abnormality occurred
  acute toxicity: death: no animal died
[7]; 3 g/kg oral once
  acute toxicity: abnormality: no abnormality occurred
  acute toxicity: death: no animal died
[8]; acetone
  solubility in acetone: easily soluble
[8]; benzene
  solubility in benzene: sparingly
[8]; chloroform
  solubility in chloroform: sparingly
[8]; hexane
  solubility in hexane: sparingly
[8]; methanol
  solubility in methanol: easily soluble
[8]; water
  solubility in water: easily soluble
